Results reported in article PMC6199744, “Development of Chemical Proteomics for the Folateome and Analysis of the Kinetoplastid Folateome” (ACS Infectious Diseases, 2018).
Read-outs that look alike come from different tables or passages of the source.

Experiments:
Type in all cases: binding
[1] = molecular target: T1, HeLa cell extract proteins (Homo sapiens, UniProt Q9H1A4)
T1 construct: endogenous in cells; host or cells: HeLa cell extract

[2] = molecular target: T2, HeLa cell extract proteins (Homo sapiens, UniProt P04792)
T2 construct: endogenous in cells; host or cells: HeLa cell extract
T2 sequence (P04792 whole entry): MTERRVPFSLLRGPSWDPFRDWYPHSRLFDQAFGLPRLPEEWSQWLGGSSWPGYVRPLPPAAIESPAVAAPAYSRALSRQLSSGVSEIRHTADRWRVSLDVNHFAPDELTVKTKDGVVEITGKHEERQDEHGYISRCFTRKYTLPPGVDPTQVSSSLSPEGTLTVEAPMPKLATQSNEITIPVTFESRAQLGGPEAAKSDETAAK

[3] = molecular target: T3, HeLa cell extract proteins (Homo sapiens, UniProt P30153)
T3 construct: endogenous in cells; host or cells: HeLa cell extract
T3 sequence (P30153 whole entry): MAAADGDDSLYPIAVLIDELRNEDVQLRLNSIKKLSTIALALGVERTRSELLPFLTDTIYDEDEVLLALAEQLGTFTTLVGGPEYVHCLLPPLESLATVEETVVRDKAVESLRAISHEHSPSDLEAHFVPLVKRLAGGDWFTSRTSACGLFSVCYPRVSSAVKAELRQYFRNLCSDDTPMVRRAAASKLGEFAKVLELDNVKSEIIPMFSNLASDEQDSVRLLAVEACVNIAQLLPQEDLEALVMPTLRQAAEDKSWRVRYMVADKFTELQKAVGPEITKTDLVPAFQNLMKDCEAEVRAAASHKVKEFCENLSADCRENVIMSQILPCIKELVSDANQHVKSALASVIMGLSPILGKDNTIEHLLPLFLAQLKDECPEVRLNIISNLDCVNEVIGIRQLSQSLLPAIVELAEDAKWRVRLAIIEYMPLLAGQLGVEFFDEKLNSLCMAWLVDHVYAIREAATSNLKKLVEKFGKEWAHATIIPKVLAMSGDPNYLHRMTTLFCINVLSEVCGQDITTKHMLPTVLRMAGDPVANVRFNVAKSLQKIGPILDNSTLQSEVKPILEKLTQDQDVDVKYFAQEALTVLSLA

[4] = molecular target: T4, HeLa cell extract proteins (Homo sapiens, UniProt P47897)
T4 construct: endogenous in cells; host or cells: HeLa cell extract
T4 sequence (P47897 1-775): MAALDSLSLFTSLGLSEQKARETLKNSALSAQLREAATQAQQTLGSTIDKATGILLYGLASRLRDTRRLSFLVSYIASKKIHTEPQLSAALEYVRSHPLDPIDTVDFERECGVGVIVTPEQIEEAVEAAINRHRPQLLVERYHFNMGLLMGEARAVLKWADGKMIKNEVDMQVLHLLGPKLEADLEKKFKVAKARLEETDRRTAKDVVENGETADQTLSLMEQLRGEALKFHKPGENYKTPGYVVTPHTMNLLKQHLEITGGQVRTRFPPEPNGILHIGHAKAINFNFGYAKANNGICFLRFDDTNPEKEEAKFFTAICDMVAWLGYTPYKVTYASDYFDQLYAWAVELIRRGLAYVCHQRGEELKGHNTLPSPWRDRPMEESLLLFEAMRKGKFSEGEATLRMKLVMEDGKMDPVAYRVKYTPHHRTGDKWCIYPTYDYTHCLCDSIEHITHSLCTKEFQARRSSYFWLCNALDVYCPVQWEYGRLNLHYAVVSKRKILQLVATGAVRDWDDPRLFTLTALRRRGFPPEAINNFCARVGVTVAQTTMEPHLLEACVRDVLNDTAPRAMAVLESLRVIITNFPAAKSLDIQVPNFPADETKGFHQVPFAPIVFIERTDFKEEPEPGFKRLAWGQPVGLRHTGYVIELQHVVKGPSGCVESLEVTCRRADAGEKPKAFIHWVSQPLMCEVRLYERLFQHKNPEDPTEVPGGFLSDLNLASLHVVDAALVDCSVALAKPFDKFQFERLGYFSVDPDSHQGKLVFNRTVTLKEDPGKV

[5] = molecular target: T5, HeLa cell extract proteins (Homo sapiens, UniProt Q9C0E2)
T5 construct: endogenous in cells; host or cells: HeLa cell extract

[6] = molecular target: T6, HeLa cell extract proteins (Homo sapiens, UniProt Q00839)
T6 construct: endogenous in cells; host or cells: HeLa cell extract
T6 sequence (Q00839 whole entry): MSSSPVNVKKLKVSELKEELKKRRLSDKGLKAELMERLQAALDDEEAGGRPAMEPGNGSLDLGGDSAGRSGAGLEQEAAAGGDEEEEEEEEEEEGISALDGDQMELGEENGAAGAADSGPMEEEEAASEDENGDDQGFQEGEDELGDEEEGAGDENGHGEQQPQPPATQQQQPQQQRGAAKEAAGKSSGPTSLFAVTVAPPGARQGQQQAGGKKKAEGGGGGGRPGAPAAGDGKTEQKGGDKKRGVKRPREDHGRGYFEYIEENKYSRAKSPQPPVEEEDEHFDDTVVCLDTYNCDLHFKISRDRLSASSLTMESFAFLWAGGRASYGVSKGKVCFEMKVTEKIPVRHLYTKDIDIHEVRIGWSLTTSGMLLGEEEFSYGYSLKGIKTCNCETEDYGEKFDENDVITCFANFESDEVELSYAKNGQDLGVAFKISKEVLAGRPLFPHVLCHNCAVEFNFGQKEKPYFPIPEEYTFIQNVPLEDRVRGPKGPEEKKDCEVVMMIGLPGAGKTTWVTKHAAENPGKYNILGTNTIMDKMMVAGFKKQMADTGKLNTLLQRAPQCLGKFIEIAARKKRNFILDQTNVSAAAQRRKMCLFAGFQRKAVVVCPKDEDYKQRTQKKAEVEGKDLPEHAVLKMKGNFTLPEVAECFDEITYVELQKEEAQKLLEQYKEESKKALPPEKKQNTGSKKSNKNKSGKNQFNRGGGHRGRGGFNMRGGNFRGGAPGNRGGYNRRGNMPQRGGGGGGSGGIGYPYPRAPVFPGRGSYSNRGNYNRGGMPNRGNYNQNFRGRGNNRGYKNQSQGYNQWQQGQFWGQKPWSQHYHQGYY

[7] = molecular target: T7, HeLa cell extract proteins (Homo sapiens, UniProt Q9Y233)
T7 construct: endogenous in cells; host or cells: HeLa cell extract
T7 sequence (Q9Y233 whole entry): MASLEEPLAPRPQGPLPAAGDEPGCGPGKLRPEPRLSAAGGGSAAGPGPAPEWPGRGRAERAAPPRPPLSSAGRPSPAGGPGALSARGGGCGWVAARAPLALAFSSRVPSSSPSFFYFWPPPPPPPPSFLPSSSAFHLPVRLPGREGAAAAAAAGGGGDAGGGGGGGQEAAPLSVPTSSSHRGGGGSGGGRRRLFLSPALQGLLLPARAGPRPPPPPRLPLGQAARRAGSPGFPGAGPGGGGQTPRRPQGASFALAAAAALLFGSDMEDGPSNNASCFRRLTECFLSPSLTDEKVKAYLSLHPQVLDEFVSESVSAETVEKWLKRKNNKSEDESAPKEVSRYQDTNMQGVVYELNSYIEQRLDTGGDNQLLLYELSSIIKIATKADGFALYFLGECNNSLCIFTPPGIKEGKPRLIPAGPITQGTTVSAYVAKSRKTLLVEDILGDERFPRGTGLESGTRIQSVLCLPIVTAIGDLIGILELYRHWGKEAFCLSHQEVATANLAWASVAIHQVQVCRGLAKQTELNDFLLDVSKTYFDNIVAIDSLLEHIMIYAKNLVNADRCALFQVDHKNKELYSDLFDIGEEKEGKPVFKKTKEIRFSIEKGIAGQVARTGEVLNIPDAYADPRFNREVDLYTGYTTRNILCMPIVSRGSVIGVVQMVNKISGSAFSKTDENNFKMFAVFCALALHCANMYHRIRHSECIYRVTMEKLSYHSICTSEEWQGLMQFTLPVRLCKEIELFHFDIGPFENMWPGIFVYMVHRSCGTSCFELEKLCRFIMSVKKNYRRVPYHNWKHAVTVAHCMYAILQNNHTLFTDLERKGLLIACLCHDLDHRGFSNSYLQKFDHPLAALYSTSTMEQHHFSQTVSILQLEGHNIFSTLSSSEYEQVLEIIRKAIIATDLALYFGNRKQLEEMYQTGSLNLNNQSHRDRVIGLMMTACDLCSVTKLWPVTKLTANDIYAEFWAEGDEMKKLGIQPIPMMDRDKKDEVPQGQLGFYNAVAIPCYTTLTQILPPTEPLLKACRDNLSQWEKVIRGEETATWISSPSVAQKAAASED

[8] = molecular target: T8, HeLa cell extract proteins (Homo sapiens, UniProt P43686)
T8 construct: endogenous in cells; host or cells: HeLa cell extract
T8 sequence (P43686 whole entry): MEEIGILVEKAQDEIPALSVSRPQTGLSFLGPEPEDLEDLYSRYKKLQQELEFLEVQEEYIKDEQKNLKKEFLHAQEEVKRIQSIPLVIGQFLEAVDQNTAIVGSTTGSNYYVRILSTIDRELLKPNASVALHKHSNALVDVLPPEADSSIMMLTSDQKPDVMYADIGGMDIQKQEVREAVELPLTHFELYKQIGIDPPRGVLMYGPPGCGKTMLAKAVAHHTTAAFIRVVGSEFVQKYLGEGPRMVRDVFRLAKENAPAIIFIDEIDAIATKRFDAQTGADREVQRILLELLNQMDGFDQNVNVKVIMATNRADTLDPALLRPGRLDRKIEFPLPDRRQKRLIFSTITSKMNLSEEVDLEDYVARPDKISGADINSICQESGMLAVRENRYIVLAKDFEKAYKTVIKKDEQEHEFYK

[9] = molecular target: T9, HeLa cell extract proteins (Homo sapiens, UniProt P06454)
T9 construct: endogenous in cells; host or cells: HeLa cell extract
T9 sequence (P06454 1-111): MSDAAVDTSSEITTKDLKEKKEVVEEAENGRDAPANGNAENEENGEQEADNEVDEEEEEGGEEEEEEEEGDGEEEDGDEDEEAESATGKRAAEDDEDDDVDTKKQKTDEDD

[10] = molecular target: T10, HeLa cell extract proteins (Homo sapiens, UniProt P25705)
T10 construct: endogenous in cells; host or cells: HeLa cell extract
T10 sequence (P25705 44-553): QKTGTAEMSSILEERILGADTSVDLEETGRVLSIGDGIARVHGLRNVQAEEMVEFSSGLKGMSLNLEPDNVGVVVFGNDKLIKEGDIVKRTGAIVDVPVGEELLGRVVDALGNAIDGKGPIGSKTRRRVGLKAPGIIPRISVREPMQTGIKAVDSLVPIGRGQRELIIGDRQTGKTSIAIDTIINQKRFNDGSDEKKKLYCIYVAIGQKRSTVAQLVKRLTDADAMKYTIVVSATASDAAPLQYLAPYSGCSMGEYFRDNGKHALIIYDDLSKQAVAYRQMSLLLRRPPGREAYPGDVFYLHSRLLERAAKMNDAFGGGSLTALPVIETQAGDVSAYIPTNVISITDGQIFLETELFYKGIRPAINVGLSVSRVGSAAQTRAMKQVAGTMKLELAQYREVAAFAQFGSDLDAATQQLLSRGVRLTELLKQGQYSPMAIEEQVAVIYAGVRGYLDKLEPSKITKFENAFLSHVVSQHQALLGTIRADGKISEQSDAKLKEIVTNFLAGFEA

[11] = molecular target: T11, HeLa cell extract proteins (Homo sapiens, UniProt P49336)
T11 construct: endogenous in cells; host or cells: HeLa cell extract
T11 sequence (P49336 whole entry): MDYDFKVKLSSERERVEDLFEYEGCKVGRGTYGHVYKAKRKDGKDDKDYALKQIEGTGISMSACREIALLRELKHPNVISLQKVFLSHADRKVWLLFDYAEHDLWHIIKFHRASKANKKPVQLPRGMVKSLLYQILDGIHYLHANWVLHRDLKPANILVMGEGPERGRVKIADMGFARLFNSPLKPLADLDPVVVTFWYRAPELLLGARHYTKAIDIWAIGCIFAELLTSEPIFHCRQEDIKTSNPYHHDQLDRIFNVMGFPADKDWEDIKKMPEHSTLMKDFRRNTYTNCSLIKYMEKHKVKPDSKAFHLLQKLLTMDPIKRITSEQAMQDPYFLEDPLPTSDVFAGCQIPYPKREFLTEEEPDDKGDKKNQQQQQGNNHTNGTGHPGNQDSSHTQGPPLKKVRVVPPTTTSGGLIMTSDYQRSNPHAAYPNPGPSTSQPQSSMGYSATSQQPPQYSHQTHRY

[12] = HeLa, protein ANAPC1 (ANAPHASE-PROMOTING COMPLEX SUBUNIT 1)
[13] = HeLa, protein PTMA (15 KDA PROTEIN.)

| Compound | fold changes relative to vehicle control [1, 12] | fold changes relative to vehicle control ([2]; HeLa, protein HSPB1) | fold changes relative to vehicle control ([3]; HeLa, protein PPP2R1A) | fold changes relative to vehicle control ([4]; HeLa, captured protein QARS) | fold changes relative to vehicle control ([5]; HeLa, protein XPO4) | fold changes relative to vehicle control ([6]; protein HNRNPU, HeLa) | fold changes relative to vehicle control ([7]; protein PDE10A, HeLa) | fold changes relative to vehicle control ([8]; protein PSMC4, HeLa) | fold changes relative to vehicle control ([9]; protein PTMA, HeLa) | fold changes relative to vehicle control ([10]; HeLa, captured protein ATP5A1) | fold changes relative to vehicle control ([11]; protein CDK8, HeLa) | fold changes relative to vehicle control ([1]; HeLa, protein ANAPC1) | fold changes relative to vehicle control ([2]; protein HSPB1, HeLa) | fold changes relative to vehicle control ([4]; HeLa, protein QARS) | fold changes relative to vehicle control ([6]; HeLa, protein HNRNPU) | fold changes relative to vehicle control ([7]; captured protein PDE10A, HeLa) | fold changes relative to vehicle control [9, 13] | fold changes relative to vehicle control ([10]; HeLa, protein ATP5A1) | fold changes relative to vehicle control ([11]; captured protein CDK8, HeLa) | other results |
| --- | --- | --- | --- | --- | --- | --- | --- | --- | --- | --- | --- | --- | --- | --- | --- | --- | --- | --- | --- | --- |
| Nc1nc2c(c(=O)[nH]1)N(C=O)C(CNc1ccc(C(=O)N[C@@H](CCC(=O)O)C(=O)O)cc1)CN2 (some centres unmarked) [LEU, leucovorin] | 1.09 | 1.01 | 0.97 | 0.97 | 0.92 | 0.8 | 1.01 | 0.97 | 0.82 | 0.99 | 1.14 | – | – | – | – | – | – | – | – | – |
| Nc1nc2[nH]cc(CCc3ccc(C(=O)N[C@@H](CCC(=O)O)C(=O)O)cc3)c2c(=O)[nH]1 [PTX, pemetrexed] | – | – | – | – | – | – | – | – | – | – | – | – | – | – | – | – | – | – | – | fold changes relative to vehicle control [1]: 1.1; fold changes relative to vehicle control [2]: 1; fold changes relative to vehicle control [3]: 0.87; fold changes relative to vehicle control [4]: 0.9; fold changes relative to vehicle control [5]: 0.82; fold changes relative to vehicle control [6]: 0.92; fold changes relative to vehicle control [7]: 0.66; fold changes relative to vehicle control [8]: 1.01; fold changes relative to vehicle control [9]: 0.97; fold changes relative to vehicle control [10]: 0.94; fold changes relative to vehicle control [11]: 0.77 |
| CCCCCCOc1ccc(Cc2cnc(N)nc2N)cc1 [compound 1] | – | – | 0.95 | – | 0.91 | – | – | 1.13 | – | – | – | 1.05 | 1.09 | 0.99 | 0.88 | 0.96 | 1.18 fold | 1 | 0.96 | – |
| CCCCCCOc1cccc(Cc2cnc(N)nc2N)c1 [compound 2] | – | – | 0.95 | – | 1.08 | – | – | 1.33 | – | – | – | 1.15 | 1.38 | 1.16 | 1.2 | 0.94 | 3.52 fold | 0.97 | 0.8 | – |
| Nc1nc2cccc(-c3ccccc3)c2n1Cc1ccc(Cl)c(Cl)c1 [compound 3] | – | – | 0.88 | – | 1.07 | – | – | 1.04 | – | – | – | 1.21 | 0.88 | 1.01 | 0.96 | 0.99 | 0.68 fold | 0.87 | 1.03 | – |
| NCCOCCOCC(=O)Nc1nc2ncc(CNc3ccc(C(=O)NC(CCC(=O)O)C(=O)O)cc3)nc2c(=O)[nH]1 (centres unmarked) [compound 6] | 1.1 | 1.07 | 0.86 | 0.95 | 0.94 | 1.18 | 0.78 | 1.13 | 0.89 | 0.95 | 0.9 | – | – | – | – | – | – | – | – | – |
| NCCCNc1ccc(C(=O)NC(CCC(=O)O)C(=O)O)cc1 (centres unmarked) [compound 7] | 1.18 | 0.94 | 0.95 | 0.92 | 1 | 1.04 | 1 | 0.98 | 0.72 | 0.99 | 1.01 | – | – | – | – | – | – | – | – | – |
